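Where inhibition never reached the appropriate level, the endpoint shown equals the highest concentration tested. Otherwise, values were interpolated linearly from a five-concentration, 48-hour dose response in 96-well plates. At the TGI there is no net growth.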

Assay in all cases: growth of human tumour cells (NCI), 48 h
The subject of experiment [1] is CAKI-1 renal.
Experiment [2] has as its system XF 498 CNS.
Experiment [3] relates to OVCAR-5 ovarian.
Experiment [4] concerns DMS 273 small cell lung.
In experiment [5] the test system is DLD-1 colon.
Experiment [6] has as its system HOP-18 NSCLC.
Experiment [7] has as its system KM20L2 colon.
The test system of experiment [8] is LXFL 529 NSCLC.
In experiment [9] the test system is DMS 114 small cell lung.
Experiment [10] deals with SNB-78 CNS.
Experiment [11] has as its system M19-MEL melanoma.
In experiment [12] the test system is RXF-631 renal.

Turning to `C[n+]1c2ccccc2c(CNC(CCC(N)=O)C(=O)O)c2ccccc21` (stereo unspecified), the TGI came out at 7.53 µM in experiment [1]; 3.81 µM in [2]; 18 µM in [3]; 4.44 µM in experiment [4]; 1.83 µM in experiment [5]; 11.8 µM in experiment [6]. The TGI was determined as 12.3 µM in experiment [7]; 2.26 µM in experiment [8]; 2.04 µM in experiment [9]; 25.7 µM in experiment [10]; 7.91 µM in experiment [11].
For `CN1N=C2c3ccccc3CC[C@H]2C1c1ccccc1` (stereo partly specified), the TGI in experiment [3], in experiment [4], in experiment [5], in [6], in [7] and in [8] was over 100 µM in each case. Also, the TGI in experiment [9] is 70.8 µM; in experiment [10] it was over 100 µM; in experiment [11] it was 66.1 µM.
For `Cc1cc(N(CCC#N)CCC#N)ccc1/C=C(\NC(=O)/C=C/c1ccccc1)NC(=O)Nc1ccc(Cl)cc1`, the TGI in [1], in [2], in experiment [3], in experiment [4], in experiment [5] and in experiment [8] was over 100 µM each time. Further, the TGI in experiment [9] and in experiment [11] was over 100 µM in each case.
Regarding `CCSc1nc2sc(C)c(C)c2c(=O)n1-c1ccc(C(=O)O)cc1`, the TGI in [1] is over 100 µM; in experiment [2], over 100 µM; in experiment [3], over 100 µM; in experiment [5], over 100 µM; in [6], 48.6 µM; in experiment [7], over 100 µM. The TGI in [9], in experiment [10] and in experiment [11] was over 100 µM throughout.
`O=C(CSc1nnc(Cc2ccccc2)o1)Nc1ccc(Cl)cc1`: the TGI in [1], in experiment [3], in experiment [4], in experiment [5], in experiment [6] and in [7] was over 100 µM each time. Moreover, the TGI in experiment [8], in experiment [9], in experiment [10] and in experiment [11] was over 100 µM throughout.
As for `CC12O[C@H](c3ccccc3)[C@H](c3ccccc3)N1C(=O)C1(C(=O)OCc3ccccc3)CC12` (stereo partly specified), the TGI in experiment [1], in experiment [2], in experiment [3], in [4], in experiment [5] and in [7] was over 100 µM throughout. Further, the TGI in experiment [8], in [9], in experiment [12] and in [11] was over 100 µM each time.
For the molecule `Nc1nc2c(ncn2CCOC(c2ccccc2)P(=O)(O)O)c(=O)[nH]1` (stereo unspecified), the TGI in [1], in experiment [3], in experiment [4], in experiment [5], in [7] and in experiment [8] was over 100 µM in each case. This molecule also had a TGI in [10] of over 100 µM.
Take `NC(=O)N/N=C(\Cc1nc2ccc(C(=O)c3ccccc3)cc2[nH]c1=O)C(=O)Nc1ccc(Br)cc1`: the TGI in experiment [1], in [2], in experiment [3], in experiment [4], in experiment [5] and in experiment [6] was over 100 µM each time. The TGI in experiment [7], in experiment [8], in experiment [9], in experiment [10] and in experiment [11] was over 100 µM in each case.
Turning to `CN(C)C(=O)CC(C(=O)O)c1c[nH]c2ccccc12` (stereo unspecified), the TGI in experiment [1], in experiment [4], in [5], in experiment [7], in experiment [8] and in experiment [9] was over 100 µM in each case. Also, the TGI in [12] and in [11] was over 100 µM in each case.
Consider `CCc1cccc(C(C)C)c1NC(=O)C(=O)C(C(=O)C(=O)OC)c1nc2ccccc2[nH]c1=O` (stereo unspecified), for which the TGI in experiment [1], in experiment [2], in experiment [3], in experiment [4], in experiment [6] and in [7] was over 100 µM each time. Also, the TGI in experiment [8], in [9], in experiment [12], in [10] and in experiment [11] was over 100 µM in each case.
As for `CCOC(=O)CCC(NC(=O)c1ccc(CNc2nc3cc(N)cc(N)c3nc2-c2ccccc2)cc1)C(=O)OCC` (stereo unspecified), the TGI in experiment [1] and in experiment [3] was over 100 µM throughout.
Turning to `O=c1ccc2ccccc2o1`, the TGI in experiment [2], in experiment [3], in [5], in experiment [6], in experiment [7] and in experiment [8] was over 100 µM each time. The TGI in experiment [9], in experiment [10] and in experiment [11] was over 100 µM in each case.
As to `CC1=C(C2=C(C)C(=O)C(=O)c3cc(C)ccc32)c2ccc(C)cc2C(=O)C1=O`, the TGI stood at 0.328 µM in experiment [1] and 0.45 µM in experiment [3].
For `Cn1c(N2CCCC2)c(C=O)c(=O)n(C)c1=O` the same measures were over 100 µM and over 100 µM.
Taken in the same sequence, the figures for `COc1ccc(-c2cc(-c3ccc(Nc4ccnc5cc(C(F)(F)F)ccc45)cc3)[nH]c(=O)c2C#N)c2ccccc12` were over 100 µM and over 100 µM.
For `Oc1ccc2c(c1)OCC(O)(c1ccccc1O)C2` (stereo unspecified) the same measures were over 100 µM and over 100 µM.
`CCOC(=O)c1c(C)n(Cc2ccccc2)c2c1cc(O)c1[nH]c3c(c12)CCCC3`: the results for the TGI in experiment [1] and in [3] were 24.5 µM and 20.1 µM, respectively.
Taken in the same sequence, the figures for `C#CC(O)/C=C/CCCCCCC#CC/C=C\CC#CCCCCCC/C=C/C(O)C#C` (stereo unspecified) were 5.98 µM and 7.86 µM.
Taken in the same sequence, the figures for `COc1ccc(CNc2nc(NCc3ccc(OC)cc3)nc(Nc3ccccc3)n2)cc1` were 10.4 µM and over 100 µM.
Turning to `CCOC(OCC)C(CC)[Se]c1ccccc1[N+](=O)[O-]` (stereo unspecified), the TGI was 88.8 µM in experiment [1]; over 49 µM in experiment [2]; over 100 µM in experiment [3]; 11.3 µM in experiment [4]; over 90.2 µM in experiment [5]; over 100 µM in experiment [6]. Further, the TGI in experiment [7] is 6.36 µM; in experiment [8], over 100 µM; in experiment [10] it was over 100 µM; in [11], over 100 µM.
On to `COc1cc(/C=C2\N=C(c3ccccc3)N(C3Nc4cc5c(cc4S3)NC(N3C(=O)/C(=C/c4cc(OC)c(OC)c(OC)c4)N=C3c3ccccc3)S5)C2=O)cc(OC)c1OC` (stereo unspecified), for which the TGI in experiment [1] and in experiment [3] was over 100 µM throughout.
